Test results published in US20220289685A1, “ANTIMALARIAL HEXAHYDROPYRIMIDINE ANALOGUES” (UCB BIOPHARMA SRL, priority 2019, published 2022).
Structures can show the parent of a compound that is named as a salt. Where two headings read alike, the source gives them in different places.

Tested on: Plasmodium falciparum 3D7 strain
Assay: P. falciparum 3D7 asexual blood stage assay (SYBR green readout)
Assay type: cell-based
Settings: Plasmodium falciparum
How it was run: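 P. falciparum 3D7 in A+ erythrocytes (5% haematocrit, 0.5% parasitaemia) exposed 72 h at 37 °C under 1% O2/3% CO2 to 20-point 1.5-fold titrations, 50,000–15 nM in 0.5% DMSO. SYBR green lysis overnight, fluorescence 485/528 nm; normalized to mefloquine and DMSO, EC50 from biphasic two-site fit.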

[1] = Erythrocyte, P. falciparum 3D7 in human erythrocytes, 72 h incubation, SYBR green fluorescence, read-out: IC50

| Compound | IC50 (3D7, Erythrocyte, 72 h) [nM] | IC50 [1] [nM] |
| --- | --- | --- |
| C[C@@H]1C[C@H](N2C(=N)N[C@](C)(c3cccc(NC(=O)c4ccc(C5CC5)nc4)c3Cl)CC2=O)CCO1 (relative stereo) [Example 53, N-(2-Chloro-3-{(4S)-2-imino-4-methyl-1-[(2R*,4R*)-2-methyl-tetrahydropyran-4-yl]-6-oxo-hexahydropyrimidin-4-yl}phenyl)-6-cyclopropylpyridine-3-carboxamide hydrochloride] | 630 | – |
| C[C@@H]1C[C@H](N2C(=N)N[C@](C)(c3cccc(NC(=O)c4cccc5c4OCO5)c3Cl)CC2=O)CCO1 (relative stereo) [Example 86, N-(2-Chloro-3-{(4S)-2-imino-4-methyl-1-[(2R*,4R*)-2-methyl-tetrahydropyran-4-yl]-6-oxo-hexahydropyrimidin-4-yl]phenyl)-1,3-benzodioxole-4-carboxamide trifluoroacetic acid salt] | – | 10 |
| C[C@@H]1C[C@H](N2C(=N)N[C@](C)(c3cccc(NC(=O)c4cc(C(F)(F)F)ccc4F)c3Cl)CC2=O)CCO1 (relative stereo) [Example 83, N-(2-Chloro-3-{(4S)-2-imino-4-methyl-1-[(2R*,4R*)-2-methyl-tetrahydropyran-4-yl]-6-oxo-hexahydropyrimidin-4-yl}phenyl)-2-fluoro-5-(trifluoromethyl)-benzamide trifluoroacetic acid salt] | 18 | – |
| C[C@@H]1C[C@H](N2C(=N)N[C@](C)(c3cccc(NC(=O)c4cc(C(F)(F)F)nn4C)c3Cl)CC2=O)CCO1 (relative stereo) [Example 32, N-(2-Chloro-3-{(4S)-2-imino-4-methyl-1-[(2R*,4R*)-2-methyl-tetrahydropyran-4-yl]-6-oxo-hexahydropyrimidin-4-yl}phenyl)-2-methyl-5-(trifluoromethyl)-pyrazole-3-carboxamide trifluoroacetic acid salt] | 55 | – |
| C[C@@H]1C[C@H](N2C(=N)N[C@](C)(c3cccc(NC(=O)c4cccnc4)c3Cl)CC2=O)CCO1 (relative stereo) [Example 7, N-(2-Chloro-3-{(4S)-2-imino-4-methyl-1-[(2R*,4R*)-2-methyl-tetrahydropyran-4-yl]-6-oxo-hexahydropyrimidin-4-yl}phenyl)-pyridine-3-carboxamide hydrochloride] | 29 | – |
| C[C@@H]1C[C@H](N2C(=N)N[C@](C)(c3cccc(NC(=O)c4cncnc4)c3Cl)CC2=O)CCO1 (relative stereo) [Example 38, N-(2-Chloro-3-{(4S)-2-imino-4-methyl-1-[(2R*,4R*)-2-methyl-tetrahydropyran-4-yl]-6-oxo-hexahydropyrimidin-4-yl]phenyl)-pyrimidine-5-carboxamide trifluoroacetic acid salt] | 110 | – |
| C[C@@]1(c2cccc(NC(=O)c3ccc(Cl)cn3)c2Cl)CC(=O)N(C2CCOCC2)C(=N)N1 [Example 2, 5-Chloro-N-{2-chloro-3-[(4S)-2-imino-4-methyl-6-oxo-1-(tetrahydropyran-4-yl)hexahydro-pyrimidin-4-yl]phenyl}pyridine-2-carboxamide trifluoroacetic acid salt] | 1120 | – |
| COc1cccnc1C(=O)Nc1cccc([C@]2(C)CC(=O)N([C@@H]3CCO[C@H](C)C3)C(=N)N2)c1Cl (relative stereo) [Example 50, N-(2-Chloro-3-{(4S)-2-imino-4-methyl-1-[(2R*,4R*)-2-methyl-tetrahydropyran-4-yl]-6-oxo-hexahydropyrimidin-4-yl}phenyl)-3-methoxypyridine-2-carboxamide trifluoroacetic acid salt] | 56 | – |
| C[C@@H]1C[C@H](N2C(=N)N[C@](C)(c3cccc(NC(=O)c4cncc(F)c4)c3Cl)CC2=O)CCO1 (relative stereo) [Example 40, N-(2-Chloro-3-{(4S)-2-imino-4-methyl-1-[(2R*,4R*)-2-methyl-tetrahydropyran-4-yl]-6-oxo-hexahydropyrimidin-4-yl]phenyl)-5-fluoropyridine-3-carboxamide trifluoroacetic acid salt] | 34 | – |
| C[C@@H]1C[C@H](N2C(=N)N[C@](C)(c3cccc(NC(=O)c4ccc[n+]([O-])c4)c3Cl)CC2=O)CCO1 (relative stereo) [Example 112, N-(2-Chloro-3-{(4S)-2-imino-4-methyl-1-[(2R*,4R*)-2-methyl-tetrahydropyran-4-yl]-6-oxo-hexahydropyrimidin-4-yl]phenyl)-1-oxidopyridin-1-ium-3-carboxamide hydrochloride] | – | 707 |
| C[C@@H]1C[C@H](N2C(=N)N[C@](C)(c3cccc(NC(=O)c4cnccc4C(F)(F)F)c3Cl)CC2=O)CCO1 (relative stereo) [Example 56, N-(2-Chloro-3-{(4S)-2-imino-4-methyl-1-[(2R*,4R*)-2-methyl-tetrahydropyran-4-yl]-6-oxo-hexahydropyrimidin-4-yl}phenyl)-4-(trifluoromethyl)pyridine-3-carboxamide hydrochloride] | 21 | – |
| Cc1ccncc1C(=O)Nc1cccc([C@]2(C)CC(=O)N([C@@H]3CCO[C@H](C)C3)C(=N)N2)c1Cl (relative stereo) [Example 82, N-(2-Chloro-3-{(4S)-2-imino-4-methyl-1-[(2R*,4R*)-2-methyl-tetrahydropyran-4-yl]-6-oxo-hexahydropyrimidin-4-yl}phenyl)-4-methylpyridine-3-carboxamide trifluoroacetic acid salt] | 35 | – |
| C[C@@H]1C[C@H](N2C(=N)N[C@](C)(c3cccc(NC(=O)c4cc(Cl)c(F)cc4F)c3Cl)CC2=O)CCO1 (relative stereo) [Example 69, 5-Chloro-N-(2-chloro-3-{(4S)-2-imino-4-methyl-1-[(2R*,4R*)-2-methyltetrahydropyran-4-yl]-6-oxo-hexahydropyrimidin-4-yl}phenyl)-2,4-difluorobenzamide hydrochloride] | 25 | – |
| C[C@@H]1C[C@H](N2C(=N)N[C@](C)(c3cccc(NC(=O)c4cc(F)cc(C#N)c4)c3Cl)CC2=O)CCO1 (relative stereo) [Example 99, N-(2-Chloro-3-{(4S)-2-imino-4-methyl-1-[(2R*,4R*)-2-methyl-tetrahydropyran-4-yl]-6-oxo-hexahydropyrimidin-4-yl}phenyl)-3-cyano-5-fluorobenzamide hydrochloride] | 18 | – |
| C[C@@H]1C[C@H](N2C(=N)N[C@](C)(c3cccc(NC(=O)c4cccc(C#N)c4)c3Cl)CC2=O)CCO1 (relative stereo) [Example 20, N-(2-Chloro-3-{(4S)-2-imino-4-methyl-1-[(2R*,4R*)-2-methyl-tetrahydropyran-4-yl]-6-oxo-hexahydropyrimidin-4-yl}phenyl)-3-cyanobenzamide hydrochloride] | 8 | – |
| Cc1cnc(C(=O)Nc2cccc([C@]3(C)CC(=O)N([C@@H]4CCO[C@H](C)C4)C(=N)N3)c2Cl)cn1 (relative stereo) [Example 34, N-(2-Chloro-3-{(4S)-2-imino-4-methyl-1-[(2R*,4R*)-2-methyl-tetrahydropyran-4-yl]-6-oxo-hexahydropyrimidin-4-yl]phenyl)-5-methylpyrazine-2-carboxamide trifluoroacetic acid salt] | 60 | – |
| Cc1nccc(C(F)(F)F)c1C(=O)Nc1cccc([C@]2(C)CC(=O)N([C@@H]3CCO[C@H](C)C3)C(=N)N2)c1Cl (relative stereo) [Example 111, N-(2-Chloro-3-{(4S)-2-imino-4-methyl-1-[(2R*,4R*)-2-methyl-tetrahydropyran-4-yl]-6-oxo-hexahydropyrimidin-4-yl}phenyl)-2-methyl-4-(trifluoromethyl)-pyridine-3-carboxamide hydrochloride] | 418 | – |
| C[C@@H]1C[C@H](N2C(=N)N[C@](C)(c3cccc(NC(=O)c4cccnc4C(F)(F)F)c3Cl)CC2=O)CCO1 (relative stereo) [Example 61, N-(2-Chloro-3-{(4S)-2-imino-4-methyl-1-[(2R*,4R*)-2-methyl-tetrahydropyran-4-yl]-6-oxo-hexahydropyrimidin-4-yl}phenyl)-2-(trifluoromethyl)pyridine-3-carboxamide hydrochloride] | 442 | – |
| C[C@@H]1CC(N2C(=N)N[C@](C)(c3cccc(NC(=O)c4cc(Cl)ccc4OC(F)F)c3Cl)CC2=O)CCO1 (relative stereo) [Example 84, 5-Chloro-N-(2-chloro-3-{(4S)-2-imino-4-methyl-1-[(2R*,4R*)-2-methyltetrahydropyran-4-yl]-6-oxo-hexahydropyrimidin-4-yl]phenyl)-2-(difluoromethoxy)benzamide trifluoroacetic acid salt] | 37 | – |
| COc1ccc(C#N)cc1C(=O)Nc1cccc([C@]2(C)CC(=O)N([C@@H]3CCO[C@H](C)C3)C(=N)N2)c1Cl (relative stereo) [Example 106, N-(2-Chloro-3-{(4S)-2-imino-4-methyl-1-[(2R*,4R*)-2-methyl-tetrahydropyran-4-yl]-6-oxo-hexahydropyrimidin-4-yl}phenyl)-5-cyano-2-methoxybenzamide hydrochloride] | 38 | – |
| C[C@@H]1C[C@H](N2C(=N)N[C@](C)(c3cccc(NC(=O)c4cccc(C#N)c4F)c3Cl)CC2=O)CCO1 (relative stereo) [Example 73, N-(2-Chloro-3-{(4S)-2-imino-4-methyl-1-[(2R*,4R*)-2-methyl-tetrahydropyran-4-yl]-6-oxo-hexahydropyrimidin-4-yl}phenyl)-3-cyano-2-fluorobenzamide hydrochloride] | 6 | – |
| Cc1cncc(C(=O)Nc2cccc([C@]3(C)CC(=O)N([C@@H]4CCO[C@H](C)C4)C(=N)N3)c2Cl)n1 (relative stereo) [Example 66, N-(2-Chloro-3-{(4S)-2-imino-4-methyl-1-[(2R*,4R*)-2-methyl-tetrahydropyran-4-yl]-6-oxo-hexahydropyrimidin-4-yl}phenyl)-6-methylpyrazine-2-carboxamide hydrochloride] | 92 | – |
